Assay results published in US9611277B2 (Janssen Pharmaceutica NV, priority 2013, dated 2017).
Read-outs that look alike come from different tables or passages of the source.

Legend:
rat orexin 1 receptor = rat orexin 1 receptor (Rattus norvegicus, UniProt P56718); assay: Rat orexin 1 receptor radioligand binding
Protocol: (§1) Data are analyzed using pc-Sandy macro and graphed on Graphpad Prism 5. For analysis, each concentration point is averaged from triplicate values and the averaged values are plotted on Graphpad Prism. The IC50 was determined by applying the following equation (GraphPad Prism 5.0, SanDiego) for one site competition where X=log (concentration) and Y=specific binding. Top denotes the total [^3H]-(1-(5-(2-fluoro-phenyl)-2-methyl-thiazol-4-yl)-1-((S)-2-(5-phenyl-(1,3,4)oxadiazol-2-ylmethyl)-pyrrolidin-1-yl)-methanone) binding, bottom denotes the nonspecific [^3H]-(1-(5-(2-fluoro-phenyl)-2-methyl-thiazol-4-yl)-1-((S)-2-(5-phenyl-(1,3,4)oxadiazol-2-ylmethyl)-pyrrolidin-1-yl)-methanone) binding. Graphpad Prism calculates Ki value from IC50 and the pre-determined Kd values for [^3H]-(1-(5-(2-fluoro-phenyl)-2-methyl-thiazol-4-yl)-1-((S)-2-(5-phenyl-(1,3,4)oxadiazol-2-ylmethyl)-pyrrolidin-1-yl)-methanone) and [3H]-EMPA. The Ki for each compound is then uploaded into 3DX. Each run comprises individual compounds in triplicate. The data in Table 1 and Table 2 represent averages from between 2-20 runs
Rat and Human Orexin 1 Receptor Radioligand Binding Studies
(§2) After centrifugation (2K×G, 5 min at 4° C.), the supernatant was aspirated and the pellets frozen and stored at −80° C. […] Each cell pellet from a 15 cm plate was resuspended in 10 mL, stored on ice, and homogenized for 45 sec prior to addition to the reactions. […] The final concentration of DMSO in the reactions is equal to or less than 0.1%. Total and nonspecific binding was determined in the absence and presence of 10 μM almorexant. The total volume of each reaction is 200 μL (20 μL of diluted compounds, 80 μL of [^3H]-(1-(5-(2-fluoro-phenyl)-2-methyl-thiazol-4-yl)-1-((S)-2-(5-phenyl-(1,3,4)oxadiazol-2-ylmethyl)-pyrrolidin-1-yl)-methanone) diluted in PBS and 100 μL of the cell suspension). […] The plates were washed 3 times by aspirating 30 ml PBS through the plates. Plates were dried in 55° C. oven for 60 min, scintillation fluid was added, and the radioactivity was counted on a Topcount (Packard).

human orexin 2 receptor = human orexin 2 receptor (Homo sapiens (Human), UniProt O43614); assay: Human orexin 2 receptor radioligand binding; conditions: human orexin 2 receptor; averages of 2-20 runs; read-out: hOX2 Ki
Sequence of human orexin 2 receptor (O43614 whole entry): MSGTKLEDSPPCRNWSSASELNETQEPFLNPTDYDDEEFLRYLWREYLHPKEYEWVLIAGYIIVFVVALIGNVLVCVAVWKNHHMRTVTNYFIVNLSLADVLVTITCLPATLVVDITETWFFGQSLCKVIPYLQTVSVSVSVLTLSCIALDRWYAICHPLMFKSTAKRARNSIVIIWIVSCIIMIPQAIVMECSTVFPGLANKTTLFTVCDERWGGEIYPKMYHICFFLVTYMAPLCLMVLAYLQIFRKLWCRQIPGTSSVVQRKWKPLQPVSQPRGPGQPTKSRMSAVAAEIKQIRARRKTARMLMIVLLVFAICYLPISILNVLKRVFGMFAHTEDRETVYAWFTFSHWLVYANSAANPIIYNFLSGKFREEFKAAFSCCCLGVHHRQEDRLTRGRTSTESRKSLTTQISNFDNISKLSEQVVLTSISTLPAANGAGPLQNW
Protocol: as §1
Human Orexin 2 Receptor Radioligand Binding Studies
as §2, with “HEK293 stably expressing human orexin 2 receptor (Genebank accession number NM_001526) were grown to confluency in DMEM (Hyclone, cat # SH30022), 10% FBS, 1× Pen/Strep, 1× NaPyruvate, 10 mM HEPES, 600 ug/ml G418 media on 150 cm^2 tissue culture plates, washed with 5 mM EDTA in PBS (HyClone Dulbecco's Phosphate Buffered Saline 1× with Calcium and Magnesium, Cat # SH30264.01, hereafter referred to simply as PBS) and scraped into 50 ml tubes. After” for “After”, “sec just” for “sec”, “[^3H]-EMPA” for “[^3H]-(1-(5-(2-fluoro-phenyl)-2-methyl-thiazol-4-yl)-1-((S)-2-(5-phenyl-(1,3,4)oxadiazol-2-ylmethyl)-pyrrolidin-1-yl)-methanone)”

[1] = rat orexin 1 receptor, averages of 2-20 runs, read-out: rOX1 Ki

Cc1nc2sccn2c1C(=O)N1CC2CC(Oc3ccc(C(F)(F)F)cn3)C1C2 (racemic) [Example 6, (R/S)-(6-methylimidazo[2,1-b]thiazol-5-yl)(6-((5-(trifluoromethyl)pyridin-2-yl)oxy)-2-azabicyclo[2.2.1]heptan-2-yl)methanone]
Ki (rat orexin 1 receptor; [1]): > 10000 nM
Ki (human orexin 2 receptor): > 10000 nM

O=C(c1cccc(F)c1-n1nccn1)N1CC2CCC1C(Oc1ccc(C(F)(F)F)cn1)C2 (racemic) [Example 249, (R/S)-(3-fluoro-2-(2H-1,2,3-triazol-2-yl)phenyl)(6-((5-(trifluoromethyl)pyridin-2-yl)oxy)-2-azabicyclo[2.2.2]octan-2-yl)methanone]
Ki (human orexin 2 receptor): 758 nM

O=C(c1ccccc1-n1nccn1)N1CC2CCC1C(Nc1cnc(C(F)(F)F)cn1)C2 (racemic) [Example 254, (R/S)-(2-(2H-1,2,3-triazol-2-yl)phenyl)(6-((5-(trifluoromethyl)pyrazin-2-yl)amino)-2-azabicyclo[2.2.2]octan-2-yl)methanone]
Ki (rat orexin 1 receptor): 12 nM
Ki (human orexin 2 receptor): 307 nM

O=C(c1cccc(F)c1-n1nccn1)N1CC2CCC1C(Nc1cnc(C(F)(F)F)cn1)C2 (racemic) [Example 255, (R/S)-(3-fluoro-2-(2H-1,2,3-triazol-2-yl)phenyl)(6-((5-(trifluoromethyl)pyrazin-2-yl)amino)-2-azabicyclo[2.2.2]octan-2-yl)methanone]
Ki (human orexin 2 receptor): 1000 nM

O=C(c1c(F)cccc1-c1ncccn1)N1C[C@H]2C[C@@H](Oc3ccc(C(F)(F)F)cn3)[C@@H]1C2 [Example 38, (2-fluoro-6-(pyrimidin-2-yl)phenyl)((1S,4R,6R)-6-((5-(trifluoromethyl)pyridin-2-yl)oxy)-2-azabicyclo[2.2.1]heptan-2-yl)methanone]
Ki (human orexin 2 receptor): 633 nM

COc1cccc(-c2ccn[nH]2)c1C(=O)N1C[C@H]2C[C@@H](Oc3ccc(C(F)(F)F)cn3)[C@@H]1C2 [Example 39, (2-methoxy-6-(1H-pyrazol-5-yl)phenyl)((1S,4R,6R)-6-((5-(trifluoromethyl)pyridin-2-yl)oxy)-2-azabicyclo[2.2.1]heptan-2-yl)methanone]
Ki (rat orexin 1 receptor; [1]): 72 nM

COc1cccc(-c2ncccn2)c1C(=O)N1C[C@H]2C[C@@H](Oc3ccc(C(F)(F)F)cn3)[C@@H]1C2 [Example 40, (2-methoxy-6-(pyrimidin-2-yl)phenyl)((1S,4R,6R)-6-((5-(trifluoromethyl)pyridin-2-yl)oxy)-2-azabicyclo[2.2.1]heptan-2-yl)methanone]
Ki (rat orexin 1 receptor; [1]): 15 nM

O=C(c1cc(F)ccc1-n1nccn1)N1C[C@H]2C[C@@H](Nc3ccc(C(F)(F)F)cn3)[C@@H]1C2 [Example 57, (5-fluoro-2-(2H-1,2,3-triazol-2-yl)phenyl)((1S,4S,6R)-6-((5-(trifluoromethyl)pyridin-2-yl)amino)-2-azabicyclo[2.2.1]heptan-2-yl)methanone]
Ki (rat orexin 1 receptor; [1]): 5 nM
Ki (human orexin 2 receptor): 225 nM

O=C(c1cccc(F)c1-c1ncccn1)N1C[C@H]2C[C@@H](Oc3ncccc3C(F)(F)F)[C@@H]1C2 [Example 96, (3-fluoro-2-(pyrimidin-2-yl)phenyl)((1S,4R,6R)-6-((3-(trifluoromethyl)pyridin-2-yl)oxy)-2-azabicyclo[2.2.1]heptan-2-yl)methanone]
Ki (rat orexin 1 receptor; [1]): 320 nM
Ki (human orexin 2 receptor): 1700 nM

O=C(c1ccccc1-n1nccn1)N1C[C@H]2C[C@@H](Oc3ccccn3)[C@@H]1C2 [Example 102, (2-(2H-1,2,3-triazol-2-yl)phenyl)((1S,4R,6R)-6-(pyridin-2-yloxy)-2-azabicyclo[2.2.1]heptan-2-yl)methanone]
Ki (rat orexin 1 receptor; [1]): 404 nM
Ki (human orexin 2 receptor): 1600 nM

Cc1ccc(C(=O)N2C[C@H]3C[C@@H](Oc4ccccn4)[C@@H]2C3)c(-n2nccn2)n1 [Example 103, (6-methyl-2-(2H-1,2,3-triazol-2-yl)pyridin-3-yl)((1S,4R,6R)-6-(pyridin-2-yloxy)-2-azabicyclo[2.2.1]heptan-2-yl)methanone]
Ki (rat orexin 1 receptor; [1]): > 10000 nM
Ki (human orexin 2 receptor): > 10000 nM

O=C(c1cccc(F)c1-c1ncccn1)N1C[C@H]2C[C@@H](Oc3ccccn3)[C@@H]1C2 [Example 104, (3-fluoro-2-(pyrimidin-2-yl)phenyl)((1S,4R,6R)-6-(pyridin-2-yloxy)-2-azabicyclo[2.2.1]heptan-2-yl)methanone]
Ki (rat orexin 1 receptor; [1]): 497 nM
Ki (human orexin 2 receptor): 5000 nM

Cc1ccc(-n2nccn2)c(C(=O)N2C[C@H]3C[C@@H](Oc4ccc(F)cn4)[C@@H]2C3)n1 [Example 119, ((1S,4R,6R)-6-((5-fluoropyridin-2-yl)oxy)-2-azabicyclo[2.2.1]heptan-2-yl)(6-methyl-3-(2H-1,2,3-triazol-2-yl)pyridin-2-yl)methanone]
Ki (rat orexin 1 receptor; [1]): 262 nM
Ki (human orexin 2 receptor): 3600 nM

Cc1cnc(O[C@@H]2C[C@H]3C[C@@H]2N(C(=O)c2nc(C)ccc2-n2nccn2)C3)nc1 [Example 132, (6-methyl-3-(2H-1,2,3-triazol-2-yl)pyridin-2-yl)((1S,4R,6R)-6-((5-methylpyrimidin-2-yl)oxy)-2-azabicyclo[2.2.1]heptan-2-yl)methanone]
Ki (rat orexin 1 receptor; [1]): 425 nM
Ki (human orexin 2 receptor): 6800 nM

Cc1cnc(O[C@@H]2C[C@H]3C[C@@H]2N(C(=O)c2ncc(C)cc2-c2ncccn2)C3)nc1 [Example 134, (5-methyl-3-(pyrimidin-2-yl)pyridin-2-yl)((1S,4R,6R)-6-((5-methylpyrimidin-2-yl)oxy)-2-azabicyclo[2.2.1]heptan-2-yl)methanone]
Ki (rat orexin 1 receptor; [1]): 668 nM
Ki (human orexin 2 receptor): > 10000 nM

CCc1cnc(O[C@@H]2C[C@H]3C[C@@H]2N(C(=O)c2nc(C)ccc2-n2nccn2)C3)nc1 [Example 136, ((1S,4R,6R)-6-((5-ethylpyrimidin-2-yl)oxy)-2-azabicyclo[2.2.1]heptan-2-yl)(6-methyl-3-(2H-1,2,3-triazol-2-yl)pyridin-2-yl)methanone]
Ki (rat orexin 1 receptor; [1]): 380 nM
Ki (human orexin 2 receptor): 4700 nM

CCc1cnc(O[C@@H]2C[C@H]3C[C@@H]2N(C(=O)c2nc(C)ccc2-c2ncccn2)C3)nc1 [Example 138, ((1S,4R,6R)-6-((5-ethylpyrimidin-2-yl)oxy)-2-azabicyclo[2.2.1]heptan-2-yl)(6-methyl-3-(pyrimidin-2-yl)pyridin-2-yl)methanone]
Ki (rat orexin 1 receptor; [1]): 300 nM
Ki (human orexin 2 receptor): 2700 nM

Cc1ccc(-n2nccn2)c(C(=O)N2C[C@H]3C[C@@H](Oc4ccc(C(F)(F)F)nn4)[C@@H]2C3)n1 [Example 140, (6-methyl-3-(2H-1,2,3-triazol-2-yl)pyridin-2-yl)((1S,4R,6R)-6-((6-(trifluoromethyl)pyridazin-3-yl)oxy)-2-azabicyclo[2.2.1]heptan-2-yl)methanone]
Ki (rat orexin 1 receptor; [1]): 330 nM
Ki (human orexin 2 receptor): 7700 nM

Cc1ccc(-c2ncccn2)c(C(=O)N2C[C@H]3C[C@@H](Oc4ccc(C(F)(F)F)nn4)[C@@H]2C3)n1 [Example 142, (6-methyl-3-(pyrimidin-2-yl)pyridin-2-yl)((1S,4R,6R)-6-((6-(trifluoromethyl)pyridazin-3-yl)oxy)-2-azabicyclo[2.2.1]heptan-2-yl)methanone]
Ki (rat orexin 1 receptor; [1]): 376 nM
Ki (human orexin 2 receptor): 7900 nM

O=C(c1cccc(F)c1-n1nccn1)N1C[C@@H]2CC[C@H]1[C@H](Nc1cnc(C(F)(F)F)cn1)C2 [Example 274, (3-fluoro-2-(2H-1,2,3-triazol-2-yl)phenyl)((1S,4R,6R)-6-((5-(trifluoromethyl)pyrazin-2-yl)amino)-2-azabicyclo[2.2.2]octan-2-yl)methanone]
Ki (human orexin 2 receptor): 534 nM

COc1cccc(-n2nccn2)c1C(=O)N1C[C@H]2C[C@@H](Oc3ccc(C(F)(F)F)cn3)[C@@H]1C2 [Example 289, (2-methoxy-6-(2H-1,2,3-triazol-2-yl)phenyl)((1S,4R,6R)-6-((5-(trifluoromethyl)pyridin-2-yl)oxy)-2-azabicyclo[2.2.1]heptan-2-yl)methanone]
Ki (human orexin 2 receptor): 207 nM
